Data taken from patent US6777426B2, “Imidazole and imidazoline derivatives and uses thereof” (Synaptic Pharmaceutical Corporation, priority 1997, dated 2004).
Structures can show the parent of a compound that is named as a salt. Where two headings read alike, the source gives them in different places.

Tests used:
[1] = biological target: T1, human α2a adrenergic receptor (Homo sapiens, UniProt P08913); test: Equilibrium competition binding, [3H]rauwolscine, cloned human α2a
T1 construct: expressed in transfected cells; host or cells: LM(tk−) cells (L-α2A, ATCC CRL-11180), vector pCEXV-3
T1 sequence (P08913 1-465): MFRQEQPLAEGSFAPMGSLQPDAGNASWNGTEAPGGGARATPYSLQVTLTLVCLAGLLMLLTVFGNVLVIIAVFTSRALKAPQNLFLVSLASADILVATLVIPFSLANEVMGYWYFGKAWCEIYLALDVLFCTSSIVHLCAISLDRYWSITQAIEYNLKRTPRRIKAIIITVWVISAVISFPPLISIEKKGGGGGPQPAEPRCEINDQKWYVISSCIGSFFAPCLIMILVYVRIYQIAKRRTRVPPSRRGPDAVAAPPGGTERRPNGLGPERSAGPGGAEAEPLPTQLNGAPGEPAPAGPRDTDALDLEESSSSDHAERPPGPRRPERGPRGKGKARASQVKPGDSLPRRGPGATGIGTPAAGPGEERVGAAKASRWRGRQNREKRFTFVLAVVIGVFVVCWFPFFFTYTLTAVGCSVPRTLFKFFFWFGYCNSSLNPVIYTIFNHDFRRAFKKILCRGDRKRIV
Method: (§1) Binding and functional assays were performed using stably transfected cells expressing human α adrenergic receptors. Equilibrium competition binding assays were performed with membrane preparations from cultured LM(tk−) cells stably transfected with the cloned human adrenoceptor subtypes except for a21, which was expressed In Y-1 cells, using [^3H]prazosin for α1 receptors and [^3H]rauwolscine for […].
(§2) These cell lines were prepared by transfecting cloned cDNA or cloned genomic DNA or constructs containing both genomic DNA and cDNA encoding the human a adrenergic receptors as described below.
The insert housing this coding region was a 2.5 kb Kpnl/HindIII human placenta genomic fragment which was end-blunted by either T4 polymerase or Klenow fragment of DNA polymerase. Stable cell lines were obtained by to-transfection with the plasmid pGCcos3neo (plasmid containing the α2a receptor gene) and the plasmid pGCcos3neo (plasmid containing the aminoglycoside transferase gene) into LM(tk−), CHO, and NIH3T3 cells, using calcium phosphate technique. The cells were grown in a controlled environment (37° C., 5% CO2) as monolayers in Dulbecco's modified Eagle's Medium (GIBCO, Grand Island, N.Y.) containing 25 mM glucose and supplemented with 10% bovine calf serum, 100 units/mL penicillin g, and […] streptomycin sulfate.
(§3) The stable cell lines described above were scraped from culture flasks into 5 mL of 5 mM Tris-HCl, […], pH 7.5, and lysed by sonication. The cell lysates were centrifuged at 1,000 rpm for 5 min. at 4° C., and the supernatant was centrifuged at 30,000×g for 20 min. at 4° C. The pellet was suspended in 50 mM Tris-HCl, 1 mM MgCl2, and 0.1% ascorbic acid at pH 7.5. Binding of the α2 antagonist [^3H]rauwolscine (0.5 nM) or the α1 antagonist [^3H]prazosin (0.5 nM) to membrane preparations of LM(tk−) cells was done in a final volume of 0.25 mL and incubated at 37° C. for 20 min. Nonspecific binding was determined in the presence of […]. The reaction was stopped by filtration through GF/B filters using a cell harvester.

[2] = biological target: T2, human α2c adrenergic receptor (Homo sapiens, UniProt P18825); test: α2 agonist activity: inhibition of forskolin-stimulated cAMP synthesis, α2c cells; type: cell-based
T2 construct: The entire coding region of α2c (1383 bp), including 2 bp of 5′ UT and 400 bp of 3′ UT; expressed in transfected cells; host or cells: LM(tk−) cells (L-α2c, ATCC CRL-11181), vector pCEXV-3
T2 sequence (P18825 1-462): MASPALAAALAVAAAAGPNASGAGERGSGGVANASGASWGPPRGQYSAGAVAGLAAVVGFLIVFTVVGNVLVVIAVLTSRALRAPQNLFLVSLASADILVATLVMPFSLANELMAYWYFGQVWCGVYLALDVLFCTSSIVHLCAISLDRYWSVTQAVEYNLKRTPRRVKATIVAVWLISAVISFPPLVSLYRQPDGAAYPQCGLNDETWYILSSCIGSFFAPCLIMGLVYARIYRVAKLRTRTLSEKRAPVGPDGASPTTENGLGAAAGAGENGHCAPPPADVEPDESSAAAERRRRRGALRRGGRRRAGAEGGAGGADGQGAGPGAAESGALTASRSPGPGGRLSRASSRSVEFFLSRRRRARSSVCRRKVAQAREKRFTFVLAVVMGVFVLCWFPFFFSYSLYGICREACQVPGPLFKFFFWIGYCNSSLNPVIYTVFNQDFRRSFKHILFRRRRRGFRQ
Method: as §1, §2
(§4) The agonist activity (expressed as pEC50) was measured as a function of the ability to inhibit the forskolin-stimulated synthesis of cyclic adenosine monophosphate (cAMP). The stably transfected cells were incubated in Ham's F10 with 5 mM theophylline, 10 mM HEPES, 17 mM pargyline, and/or appropriate concentrations of forskolin for 20 min. at 37° C. in 5% CO2. The tested compounds were then added to a final concentration of 0.001 nM to 1 mM and incubated for an additional 15 min. at 37° C. in 5% CO2. The medium was aspirated and the reaction was stopped by the addition of 100 mM HCl. […] The plates were stored at 4° C. for 15 min. and assayed to determine the linear concentration of cAMP. The appropriate dilution was interpolated from the standard curve of cold cAMP. The assessment of cAMP formation was determined by radioimmunoassay (cAMP radioimmunoassay kit; Advanced magnetics, Cambridge, Mass.). Radioactivity was quantified using a Packard COBRA Auto Gamma counter equipped with data reduction software.

[3] = biological target: T3, human α2b adrenergic receptor (Homo sapiens, UniProt P18089); test: Equilibrium competition binding, [3H]rauwolscine, cloned human α2b
T3 construct: expressed in transfected cells; host or cells: stably transfected cells, vector pcEXV-3; deposited line L-NGC-α2B (ATCC CRL-10275)
T3 sequence (P18089 1-450): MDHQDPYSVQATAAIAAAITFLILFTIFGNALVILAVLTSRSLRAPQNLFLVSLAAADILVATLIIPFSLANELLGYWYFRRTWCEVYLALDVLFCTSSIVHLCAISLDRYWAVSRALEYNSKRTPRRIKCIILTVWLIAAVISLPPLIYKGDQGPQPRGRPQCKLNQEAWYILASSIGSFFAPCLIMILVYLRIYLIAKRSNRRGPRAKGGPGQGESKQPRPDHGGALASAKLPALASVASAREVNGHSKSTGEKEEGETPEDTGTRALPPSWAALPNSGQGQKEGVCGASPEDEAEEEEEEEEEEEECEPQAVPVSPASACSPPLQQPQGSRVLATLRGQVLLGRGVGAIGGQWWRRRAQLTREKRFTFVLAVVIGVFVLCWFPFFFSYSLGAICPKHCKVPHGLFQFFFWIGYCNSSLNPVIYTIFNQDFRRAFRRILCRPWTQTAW
Method: as §1, §2
Stable cell lines were selected as described above.
as §3

[4] = biological target: T2, human α2c adrenergic receptor; test: Equilibrium competition binding, [3H]rauwolscine, cloned human α2c
Method: as §1, §2
The insert housing this coding region was a 1.8 kb Ncol/EcoR1 human spleen genomic fragment which was end-blunted by either T4 polymerase or Klenow fragment of DNA polymerase. Stable cell lines were selected as described above.
as §3

[5] = biological target: T3, human α2b adrenergic receptor; test: α2 agonist activity: inhibition of forskolin-stimulated cAMP synthesis, α2b cells; type: cell-based
Method: as §1, §2, §4

[6] = biological target: T1, human α2a adrenergic receptor; test: α2 agonist activity: inhibition of forskolin-stimulated cAMP synthesis, α2a cells; type: cell-based
Method: as §1, §2, §4

[7] = inhibition of forskolin-stimulated cAMP, cloned human α2c
[8] = inhibition of forskolin-stimulated cAMP, cloned human α2b
[9] = inhibition of forskolin-stimulated cAMP, cloned human α2a
[10] = cloned human α2a, membrane preparations, [3H]rauwolscine, read-out: α2a pKi (converted)
[11] = inhibition of forskolin-stimulated cAMP, cloned human α2c, read-out: α2c pEC50 (converted)
[12] = cloned human α2b, membrane preparations, [3H]rauwolscine, read-out: α2b pKi (converted)
[13] = cloned human α2c, membrane preparations, [3H]rauwolscine, read-out: α2c pKi (converted)
[14] = inhibition of forskolin-stimulated cAMP, cloned human α2b, read-out: α2b pEC50 (converted)

Compound `Brc1cc2c(c(Br)c1NC1=NCCN1)CCC2` has a melting point of 163 to 164 °C.
For `O=C1CCCc2ccc(NC3=NCCN3)cc21` (as salt: fumarate) [Example 4, 2-(1,2,3,4-Tetrahydro-1-oxo-naphth-7-yl)amino-2-imidazoline], the melting point was 198 to 201 °C (dec.).
For `c1nc2c(cc1NC1=NCCN1)CCC2` [Example 21, 2-(2,3-Cyclopentenopyrid-5-yl)amino-2-imidazoline], the Ki [1] was 50.1 nM, the EC50 [2] was 16.2 nM and the “α2c IA (Intrinsic Activity)” value [2, 7] was “(1.00)”. It also gave a Ki [3] of 166 nM, a Ki [4] of 457 nM and an EC50 [5] of 1950 nM. For the same compound, the “α2b IA (Intrinsic Activity)” value [5, 8] was “(0.55)”, the EC50 [6] was 389 nM and the “α2a IA (Intrinsic Activity)” value [6, 9] was “(0.58)”.
With `C1=NC(Cc2ccnc3ccccc23)CN1.O=C(O)/C=C/C(=O)O` (centres unmarked) the melting point was 180 to 182 °C.
For `c1nc2c(cc1NC1=NCCN1)CSCC2` (as salt: fumarate) [Example 25, 2-(5,6,7,8-tetrahydro-6-thia-quinolin-3-yl)amino-2-imidazoline], the melting point was 199.5 to 200.5 °C.
In the case of `CON=C1CCCc2ccc(NC3=NCCN3)cc21` (as salt: fumarate) [Example 8, 2-(1,2,3,4-Tetrahydro-1-methoxyimino-naphth-7-yl)amino-2-imidazoline], the melting point is reported as 201 to 202 °C (dec.).
Compound `c1nc2c(cc1NC1=NCCN1)COCC2` (as salt: fumarate) has a melting point of 201 to 202.5 °C.
Work on `c1nc2c(cc1NC1=NCCN1)CCC2` (as salt: fumarate) [Example 21, 2-(2,3-Cyclopentenopyrid-5-yl)amino-2-imidazoline] yielded a melting point of 182 to 183.5 °C.
With `CC1CCc2ncc(NC3=NCCN3)cc2C1` (centres unmarked) (as salt: fumarate) the melting point was 192 to 195 °C (dec.).
With `O=C1CCCc2ccc(NC3=NCCN3)c(Br)c21` (as salt: fumarate) [Example 5, 2-(8-Bromo-1,2,3,4-Tetrahydro-1-oxo-naphth-7-yl)amino-2-imidazoline] the melting point was 204 to 207 °C (dec.).
In the case of `Br.Brc1cc2c(cc1NC1=NCCN1)CCC2`, the melting point is reported as 220 to 221 °C.
With `Cc1nc2c(c(C)c1NC1=NCCN1)CCC2` [Example 30, 2-(5,6-Cyclopenteno-2,4-dimethyl-pyrid-3-yl)amino-2-imidazoline] the Ki [1, 10] was 17.8 nM, the “α2c IA (Intrinsic Activity)” value [2, 7] was “(1.00)” and the EC50 [2, 11] was 6.31 nM. The Ki [3, 12] was 36.3 nM, the Ki [4, 13] was 309 nM and the “α2b IA (Intrinsic Activity)” value [5, 8] was “(0.43)”. The EC50 [5, 14] was 148 nM, the EC50 [6] was 2.95 nM and the “α2a IA (Intrinsic Activity)” value [6, 9] was “(1.00)”.
With `CC(c1c[nH]cn1)c1cc(-c2ccccc2)nc2ccccc12` (centres unmarked) [Example 36, 4-[1-(1H-Imidazol-4-yl)-ethyl]-2-phenyl-quinoline dihydrochloride] the Ki [1, 10] was 2.69 nM, the EC50 [2, 11] was 7.24 nM and the Ki [3, 12] was 40.7 nM. It also gave a Ki [4, 13] of 16.2 nM, an EC50 [5, 14] of 2820 nM and an EC50 ([6]; inhibition of forskolin-stimulated cAMP, cloned human α2a, read-out: α2a pEC50 (converted)) of 10000 nM.
With `CC1CCCc2ccc(NC3=NCCN3)cc21` (centres unmarked) (as salt: fumarate) the melting point was 185 to 187 °C (dec.).
With `CC1CCCc2cc(NC3=NCCN3)cnc21` (centres unmarked) (as salt: fumarate) the melting point was 155 to 160 °C (dec.).
In the case of `Cc1nc2c(c(C)c1NC1=NCCN1)CCC2` (as salt: fumarate) [Example 30, 2-(5,6-Cyclopenteno-2,4-dimethyl-pyrid-3-yl)amino-2-imidazoline], the melting point is reported as 220 to 221 °C.
With `c1nc2c(cc1NC1=NCCN1)CCCC2` (as salt: fumarate) the melting point was 201 to 203 °C.
In the case of `Cc1cccc(C(C)c2cnc[nH]2)c1C` (centres unmarked) [Medetomidine, reference compound], the “α2c IA (Intrinsic Activity)” value [2, 7] is reported as “(1.00)”, the EC50 [2, 11] is reported as 1.48 nM and the Ki [4, 13] is reported as 5.37 nM. For the same compound, the “α2a IA (Intrinsic Activity)” value [6, 9] was “(1.00)”.
For `CC1(C)CCCc2cc(NC3=NCCN3)cnc21` (as salt: fumarate), the melting point was 185 to 186 °C (dec.).
In the case of `Brc1c(NC2=NCCN2)ccc2nccnc12` [UK-14, 304, reference compound], the “α2c IA (Intrinsic Activity)” value [2, 7] is reported as “(1.00)”.
In the case of `CC(=O)N1CCc2cc(NC3=NCCN3)ccc21` (as salt: fumarate) [Example 9, 2-(1-Acetyl-indolin-5-yl)amino-2-imidazoline], the melting point is reported as 200 to 203 °C (dec.).
For `OC1CCCc2ccc(NC3=NCCN3)cc21` (centres unmarked) (as salt: fumarate), the melting point was 180 to 182 °C (dec.).
For `O=[N+]([O-])c1cc2c(cc1NC1=NCCN1)CCC2` (as salt: fumarate), the melting point was 213 to 214 °C (dec.).
